Experimental data taken from PubChem BioAssay (NCI).
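A five-concentration, 48-hour dose response in 96-well plates underlies each endpoint, interpolated linearly between surrounding concentrations. Here, GI50 denotes the concentration required for 50% inhibition of growth. Definition used: TGI = concentration required for complete inhibition of growth.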

Tests used:
Test in all cases: NCI-60 cell line screen, 48 h
[1] = test system: OVCAR-5 ovarian
[2] = test system: UACC-62 melanoma
[3] = test system: ACHN renal
[4] = test system: 786-0 renal
[5] = test system: SK-OV-3 ovarian
[6] = test system: MALME-3M melanoma
[7] = test system: HT29 colon
[8] = test system: MOLT-4 leukemia
[9] = test system: HCT-116 colon
[10] = test system: COLO 205 colon
[11] = test system: NCI-H23 lung
[12] = test system: SF-539 CNS
[13] = test system: DU-145 prostate
[14] = test system: A549 NSCLC
[15] = test system: SN12C renal
[16] = test system: HOP-62 NSCLC
[17] = test system: OVCAR-8 ovarian
[18] = test system: NCI-H522 lung
[19] = test system: MDA-MB-231 breast
[20] = test system: NCI-H460 lung
[21] = test system: CCRF-CEM leukemia
[22] = test system: LOX IMVI melanoma
[23] = test system: RXF 393 renal
[24] = test system: SK-MEL-28 melanoma
[25] = test system: SK-MEL-5 melanoma
[26] = test system: SF-295 CNS
[27] = test system: IGROV1 ovarian
[28] = test system: NCI/ADR-RES ovarian
[29] = test system: HS 578T breast
[30] = test system: SNB-75 CNS
[31] = test system: MCF7 breast
[32] = test system: RPMI-8226 leukemia
[33] = test system: UACC-257 melanoma
[34] = test system: A498 renal
[35] = test system: T-47D breast
[36] = test system: HL-60(TB) leukemia
[37] = test system: SR leukemia
[38] = test system: SNB-19 CNS
[39] = test system: HOP-92 NSCLC
[40] = test system: TK-10 renal
[41] = test system: PC-3 prostate
[42] = test system: NCI-H226 lung
[43] = test system: HCT-15 colon
[44] = test system: HCC-2998 colon
[45] = test system: UO-31 renal
[46] = test system: M14 melanoma
[47] = test system: K-562 leukemia
[48] = test system: BT-549 breast
[49] = test system: OVCAR-3 ovarian
[50] = test system: CAKI-1 renal
[51] = test system: SW-620 colon
[52] = test system: SF-268 CNS
[53] = test system: OVCAR-4 ovarian
[54] = test system: SK-MEL-2 melanoma
[55] = test system: KM12 colon
[56] = test system: U251 CNS

Molecule `Cc1cc(Cc2cc(C)c(O)c(C)c2)cc(C)c1O` has a GI50 [1] of 17.8 µM, a TGI [1] of 61.9 µM and a GI50 [2] of 5.41 µM. For the same molecule, the TGI [2] was 62.6 µM, the GI50 [3] was 12.1 µM and the TGI [3] was > 100 µM. It also gave a GI50 [4] of 10.4 µM, a TGI [4] of 40.4 µM and a GI50 [5] of 6.47 µM. The TGI [5] was 52.4 µM, the GI50 [6] was 9.12 µM and the TGI [6] was 59.2 µM. For the same molecule, the GI50 [7] was 8.87 µM, the TGI [7] was 33.8 µM and the GI50 [8] was 3.82 µM. It also gave a TGI [8] of 27.8 µM, a GI50 [9] of 4.12 µM and a TGI [9] of 15.2 µM. The GI50 [10] was 32.9 µM, the TGI [10] was > 100 µM and the GI50 [11] was 11.3 µM. The TGI [11] was 74 µM, the GI50 [12] was 3.25 µM and the TGI [12] was 14.2 µM. For the same molecule, the GI50 [13] was 14.6 µM, the TGI [13] was > 100 µM and the GI50 [14] was 4.32 µM. The TGI [14] was 38.2 µM, the GI50 [15] was 5.12 µM and the TGI [15] was > 100 µM. For the same molecule, the GI50 [16] was 7.01 µM, the TGI [16] was 89.6 µM and the GI50 [17] was 7.59 µM. The TGI [17] was > 100 µM, the GI50 [18] was 3.49 µM and the TGI [18] was 15.4 µM. It also gave a GI50 [19] of 6.85 µM, a TGI [19] of 38.3 µM and a GI50 [20] of 3.33 µM. For the same molecule, the TGI [20] was 11.8 µM, the GI50 [21] was 4.14 µM and the TGI [21] was > 100 µM. The GI50 [22] was 6.64 µM, the TGI [22] was 33.3 µM and the GI50 [23] was 6.47 µM. For the same molecule, the TGI [23] was 36.4 µM, the GI50 [24] was 11.4 µM and the TGI [24] was 66.5 µM. For the same molecule, the GI50 [25] was 4.53 µM, the TGI [25] was 17.5 µM and the GI50 [26] was 3.92 µM. For the same molecule, the TGI [26] was 21.7 µM, the GI50 [27] was 11.3 µM and the TGI [27] was > 100 µM. For the same molecule, the GI50 [28] was 3.95 µM, the TGI [28] was 48.5 µM and the GI50 [29] was 2.58 µM. The TGI [29] was 12.5 µM, the GI50 [30] was 2.59 µM and the TGI [30] was 25.9 µM. The GI50 [31] was 3.83 µM, the TGI [31] was 53.7 µM and the GI50 [32] was 3.89 µM. It also gave a TGI [32] of 30.9 µM, a GI50 [33] of 6.94 µM and a TGI [33] of 62.2 µM. The GI50 [34] was 11.9 µM, the TGI [34] was 35.5 µM and the GI50 [35] was 4.64 µM. The TGI [35] was 72 µM, the GI50 [36] was 2.89 µM and the TGI [36] was 9.86 µM. The GI50 [37] was 2.65 µM, the TGI [37] was 20.2 µM and the GI50 [38] was 7.81 µM. For the same molecule, the TGI [38] was > 100 µM, the GI50 [39] was 4.35 µM and the TGI [39] was 29.4 µM. It also gave a GI50 [40] of 11.2 µM, a TGI [40] of 56.8 µM and a GI50 [41] of 14.8 µM. For the same molecule, the TGI [41] was > 100 µM, the GI50 [42] was 19.2 µM and the TGI [42] was 77.1 µM. The GI50 [43] was 3.49 µM, the TGI [43] was > 100 µM and the GI50 [44] was 16.3 µM. The TGI [44] was 82.1 µM, the GI50 [45] was 7.65 µM and the TGI [45] was 96.6 µM. The GI50 [46] was 3 µM, the TGI [46] was 13.2 µM and the GI50 [47] was 1.76 µM. For the same molecule, the TGI [47] was 18.8 µM, the GI50 [48] was 3.78 µM and the TGI [48] was 17.6 µM. It also gave a GI50 [49] of 3.43 µM, a TGI [49] of 10.5 µM and a GI50 [50] of 3.74 µM. The TGI [50] was 21.6 µM, the GI50 [51] was 3.03 µM and the TGI [51] was > 100 µM. For the same molecule, the GI50 [52] was 7.85 µM, the TGI [52] was 86.2 µM and the GI50 [53] was 29 µM. For the same molecule, the TGI [53] was > 100 µM, the GI50 [54] was 3.65 µM and the TGI [54] was 11 µM. For the same molecule, the GI50 [55] was 3.93 µM, the TGI [55] was 15.7 µM and the GI50 [56] was 3.68 µM. It also gave a TGI [56] of 19.6 µM.
